Measurements from patent US20150307938A1, “METHOD TO IDENTIFY A NOVEL CLASS OF IMMUNOLOGIC ADJUVANTS” (Lancell, L.L.C., priority 2011, published 2015).

Tested on: skin
Assay: Affymetrix microarray of skin, DBP-4 hr and analogs vs. untreated; gene selection by log-2 fold change, Wilcoxon, Kendall tau (Tables 8, 9)
Format: in vivo, mouse
Settings: DBP-4 hr

Structure (SMILES): CCCCOC(=O)c1ccccc1C(=O)OCCCC [DBP, dibutylphthalate]
- DBP Expression: Nr4a2 (NM_013613_at): 7.45
- DBP Expression: Ccl7 (NM_013654_at): 8.86
- DBP Expression: Plk3 (NM_013807_at): 8.72
- DBP Expression: Bcar3 (NM_013867_at): 7.96
- DBP Expression: Clic4 (NM_013885_at): 9.05
- DBP Expression: Rgs1 (NM_015811_at): 7.35
- DBP Expression: Aqp3 (NM_016689_at): 10.49
- DBP Expression: Map3k6 (NM_016693_at): 8.79
- DBP Expression: Krt35 (NM_016880_at): 5.45
- DBP Expression: Ccl20 (NM_016960_at): 11.11
- DBP Expression: Nfil3 (NM_017373_at): 8.13
- DBP Expression: Arc (NM_018790_at): 6.81
- DBP Expression: Cd86 (NM_019388_at): 7.42
- DBP Expression: Nfkb2 (NM_019408_at): 8.26
- DBP Expression: Ramp3 (NM_019511_at): 7.94
- DBP Expression: Pde4b (NM_019840_at): 8.96
- DBP Expression: Clec7a (NM_020008_at): 9.14
- DBP Expression: Angptl4 (NM_020581_at): 9.51
- DBP Expression: Pmaip1 (NM_021451_at): 8.41
- DBP Expression: Gpr35 (NM_022320_at): 5.63
- DBP Expression: Ptges (NM_022415_at): 8.31
- DBP Expression: Cxcl16 (NM_023158_at): 8.99
- DBP Expression: Zfp593 (NM_024215_at): 6.14
- DBP Expression: Pqlc1 (NM_025861_at): 10.20
- DBP Expression: Efhd2 (NM_025994_at): 10.57
- DBP Expression: Slc39a8 (NM_026228_at): 6.13
- DBP Expression: Dusp6 (NM_026268_at): 10.59
- DBP Expression: 1810011010Rik (NM_026931_at): 9.68
- DBP Expression: Pvr (NM_027514_at): 6.71
- DBP Expression: 1810055G02Rik (NM_028077_at): 8.40
- DBP Expression: Rnf19b (NM_029219_at): 8.99
- DBP Expression: Slc10a6 (NM_029415_at): 9.28
- DBP Expression: Abcc3 (NM_029600_at): 7.87
- DBP Expression: 1600029D21Rik (NM_029639_at): 10.16
- DBP Expression: Klrb 1b (NM_030599_at): 6.58
- DBP Expression: Il6 (NM_031168_at): 6.41
- DBP Expression: Bcl3 (NM_033601_at): 8.92
- DBP Expression: Epgn (NM_053087_at): 9.09
- DBP Expression: Otud7a (NM_130880_at): 7.23
- DBP Expression: Ier3 (NM_133662_at): 11.24
- DBP Expression: Prss22 (NM_133731_at): 7.96
- DBP Expression: Errfi1 (NM_133753_at): 10.14
- DBP Expression: Uap1 (NM_133806_at): 9.16
- DBP Expression: Stk17b (NM_133810_at): 9.70
- DBP Expression: Havcr2 (NM_134250_at): 7.20
- DBP Expression: Cytip (NM_139200_at): 9.90
- DBP Expression: Slc39a14 (NM_144808_at): 6.31
- DBP Expression: Cd207 (NM_144943_at): 10.32
- DBP Expression: Pyy (NM_145435_at): 9.16
- DBP Expression: Deptor (NM_145470_at): 9.12
- DBP Expression: Smox (NM_145533_at): 8.07
- DBP Expression: Arid5a (NM_145996_at): 7.61
- DBP Expression: Slc25a25 (NM_146118_at): 8.10
- DBP Expression: Kctd11 (NM_153143_at): 9.35
- DBP Expression: Dusp7 (NM_153459_at): 8.85
- DBP Expression: Adamts4 (NM_172845_at): 6.21
- DBP Expression: Fam43a (NM_177632_at): 9.07
- DBP Expression: Coro2a (NM_178893_at): 7.02
- DBP Expression: Gyk (NM_212444_at): 9.63
- DBP Expression: Il4ra (NM_001008700_at): 7.47
- DBP Expression: Il1rl1 (NM_001025602_at): 8.40
- DBP Expression: Zbtb16 (NM_001033324_at): 6.93
- DBP Expression: Deptor (NM_001037937_at): 9.12
- DBP Expression: Cd44 (NM_001039150_at): 9.82
- DBP Expression: Cd44 (NM_001039151_at): 9.82
- DBP Expression: Irs2 (NM_001081212_at): 8.35
- DBP Expression: Pprc1 (NM_001081214_at): 8.81
- DBP Expression: Gpr35 (NM_001104529_at): 5.63
- DBP Expression: Crem (NM_001110850_at): 6.91
- DBP Expression: Crem (NM_001110853_at): 6.26
- DBP Expression: Crem (NM_001110854_at): 6.91
- DBP Expression: Crem (NM_001110855_at): 6.91
- DBP Expression: Crem (NM_001110856_at): 6.91
- DBP Expression: Crem (NM_001110857_at): 6.26
- DBP Expression: Crem (NM_001110858_at): 6.26
- DBP Expression: Crem (NM_001110859_at): 6.26
- DBP Expression: Slc39a8 (NM_001135149_at): 6.13
- DBP Expression: Slc39a8 (NM_001135150_at): 6.13
- DBP Expression: Slc39a14 (NM_001135151_at): 6.31
- DBP Expression: Slc39a14 (NM_001135152_at): 6.31
- DBP Expression: Nr4a2 (NM_001139509_at): 7.45
- DBP Expression: Ccl20 (NM_001159738_at): 11.11
- DBP Expression: Slc25a25 (NM_001164357_at): 8.10
- DBP Expression: Slc25a25 (NM_001164358_at): 8.10
- DBP Expression: Pqlc1 (NM_001164420_at): 10.20
- DBP Expression: Pqlc1 (NM_001164421_at): 10.20
- DBP Expression: Pqlc1 (NM_001164422_at): 10.20
- DBP Expression: Coro2a (NM_001164804_at): 7.02
- DBP Expression: Tnfaip3 (NM_001166402_at): 7.22
